Laboratory results: US20170189504A1, “NOVEL PEPTIDES AND COMBINATION OF PEPTIDES FOR USE IN IMMUNOTHERAPY AGAINST VARIOUS CANCERS” (immatics biotechnologies GmbH, priority 2015, published 2017)

Tests used:
CD8+ T cells = experiment: In vitro immunogenicity: T-cell priming with aAPCs loaded with peptide/MHC complexes and anti-CD28 antibody, pMHC multimer readout (Tables 19A, 19B); format: cell-based, human; conditions: in vitro immunogenicity of HLA class I peptides, pMHC multimer readout after priming of CD8+ T cells
Description: In an aspect, the peptides are pre-screened for immunogenicity before being included in the warehouse. By way of example, and not limitation, the immunogenicity of the peptides included in the warehouse is determined by a method comprising in vitro T-cell priming through repeated stimulations of CD8+ T cells from healthy donors with artificial antigen presenting cells loaded with peptide/MHC complexes and anti-CD28 antibody.
In order to obtain information regarding the immunogenicity of the TUMAPs of the present invention, the inventors performed investigations using an in vitro T-cell priming assay based on repeated stimulations of CD8+ T cells with artificial antigen presenting cells (aAPCs) loaded with peptide/MHC complexes and anti-CD28 antibody.
In order to perform in vitro stimulations by artificial antigen presenting cells loaded with peptide-MHC complex (pMHC) and anti-CD28 antibody, the inventors first isolated CD8+ T cells from fresh HLA-A*02 leukapheresis products via positive selection using CD8 microbeads (Miltenyi Biotec, Bergisch-Gladbach, Germany) of healthy donors obtained from the University clinics Mannheim, Germany, after informed consent.
PBMCs and isolated CD8+ lymphocytes were incubated in T-cell medium (TCM) until use consisting of RPMI-Glutamax (Invitrogen, Karlsruhe, Germany) supplemented with 10% heat inactivated human AB serum (PAN-Biotech, Aidenbach, Germany), 100 U/ml Penicillin/100 μg/ml Streptomycin (Cambrex, Cologne, Germany), 1 mM sodium pyruvate (CC Pro, Oberdorla, Germany), 20 μg/ml Gentamycin (Cambrex). 2.5 ng/ml IL7 (PromoCell, Heidelberg, Germany) and 10 U/ml IL-2 (Novartis Pharma, Nurnberg, Germany) were also added to the TCM at this step.
Generation of pMHC/anti-CD28 coated beads, T-cell stimulations and readout was performed in a highly defined in vitro system using four different pMHC molecules per stimulation condition and 8 different pMHC molecules per readout condition.
The purified co-stimulatory mouse IgG2a anti human CD28 Ab 9.3 (Jung et al., 1987) was chemically biotinylated using Sulfo-N-hydroxysuccinimidobiotin as recommended by the manufacturer (Perbio, Bonn, Germany). Beads used were 5.6 μm diameter streptavidin coated polystyrene particles (Bangs Laboratories, Illinois, USA).
pMHC used for positive and negative control stimulations were A*0201/MLA-001 (peptide […] (SEQ ID NO. 303) from modified Melan-A/MART-1) and A*0201/DDX5-001 ([…] from DDX5, SEQ ID NO. 304), respectively.
800.000 beads/200 μl were coated in 96-well plates in the presence of 4×12.5 ng different biotin-pMHC, washed and 600 ng biotin anti-CD28 were added subsequently in a volume of 200 μl. Stimulations were initiated in 96-well plates by co-incubating […] CD8+ T cells with 2×10^5 washed coated beads in 200 μl TCM supplemented with 5 ng/ml IL-12 (PromoCell) for 3 days at 37° C. Half of the medium was then exchanged by fresh TCM supplemented with 80 U/ml IL-2 and incubating was continued for 4 days at 37° C. This stimulation cycle was performed for a total of three times. For the pMHC multimer readout using 8 different pMHC molecules per condition, a two-dimensional combinatorial coding approach was used as previously described (Andersen et al., 2012) with minor modifications encompassing coupling to 5 different fluorochromes. Finally, multimeric analyses were performed by staining the cells with Live/dead near IR dye (Invitrogen, Karlsruhe, Germany), CD8-FITC antibody clone SK1 (BD, Heidelberg, Germany) and fluorescent pMHC multimers. For analysis, a BD LSRII SORP cytometer equipped with appropriate lasers and filters was used. Peptide specific cells were calculated as percentage of total CD8+ cells. Evaluation of multimeric analysis was done using the FlowJo software (Tree Star, Oreg., USA). In vitro priming of specific multimer+ CD8+ lymphocytes was detected by comparing to negative control stimulations.

HLA-A*24 = experiment: MHC binding assay, UV-ligand exchange with β2m ELISA, HLA-A*24 (Table 21); parameters: species or system human; conditions: binding to HLA-A*24 ranged by peptide exchange yield (UV-ligand exchange, β2m ELISA)
Method in brief: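 Peptide–MHC complexes made by UV-ligand exchange of a UV-cleavable peptide, diluted 100-fold and captured on streptavidin plates. Stabilized complexes detected by HRP anti-β2m ELISA (1 h, 37° C, A450). Exchange yield derived against refolded HLA-A*02:01/MLA-001 monomer standards (15-500 ng/ml).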

Row | Substance | Wells positive [%] (CD8+ T cells) | Peptide exchange (HLA-A*24)
1 | 163 (DYLKGLASF; listed as Homo sapiens) [compound 163] | + (<20% = +) | ++++ (≧75% = ++++)
2 | 222 (TFSVSSHLF; listed as Homo sapiens) [compound 222] | ++ (20%-49% = ++) | +++ (50%-75% = +++)
3 | 207 (AYVVFVSTL; listed as Homo sapiens) [compound 207] | + (<20% = +) | ++ (20%-49% = ++)
